Source: ChEMBL document CHEMBL3351686, “Facile and diastereoselective synthesis of 3,2'-spiropyrrolidine-oxindoles derivatives, their molecular docking and antiproliferative activities” (2015)
Values after ≈ are worked out from the molar mass of the structure shown.

Experiments:
Proteus vulgaris [1] = assay: Antibacterial activity against Proteus vulgaris MTCC 1771 assessed as inhibition of visual growth after 24 hrs; format: functional; conditions: MTCC 1771, 24 h
Staphylococcus aureus [2] = assay: Antibacterial activity against Staphylococcus aureus MTCC 96 assessed as zone of inhibition at 1 mg/disc after 24 hrs by disc diffusion method; format: functional
Klebsiella aerogenes [3] = assay: Antibacterial activity against Enterobacter aerogenes MTCC 111 assessed as inhibition of visual growth after 24 hrs; format: functional; conditions: MTCC 111, 24 h
Micrococcus luteus [4] = assay: Antibacterial activity against Micrococcus luteus MTCC 106 assessed as inhibition of visual growth after 24 hrs; format: functional; conditions: MTCC 106, 24 h
Klebsiella pneumoniae [5] = assay: Antibacterial activity against Klebsiella pneumoniae MTCC 109 assessed as zone of inhibition at 1 mg/disc after 24 hrs by disc diffusion method; format: functional
Staphylococcus aureus [6] = assay: Antibacterial activity against Staphylococcus aureus MTCC 96 assessed as inhibition of visual growth after 24 hrs; format: functional; conditions: MTCC 96, 24 h
Staphylococcus aureus [7] = assay: Antibacterial activity against methicillin-resistant Staphylococcus aureus assessed as zone of inhibition at 1 mg/disc after 24 hrs by disc diffusion method; format: functional
Proteus vulgaris [8] = assay: Antibacterial activity against Proteus vulgaris MTCC 1771 assessed as zone of inhibition at 1 mg/disc after 24 hrs by disc diffusion method; format: functional
[9] = tested on: Staphylococcus epidermidis; assay: Antibacterial activity against Staphylococcus epidermidis MTCC 3615 assessed as inhibition of visual growth after 24 hrs; format: functional; conditions: MTCC 3615, 24 h
Micrococcus luteus [10] = assay: Antibacterial activity against Micrococcus luteus MTCC 106 assessed as zone of inhibition at 1 mg/disc after 24 hrs by disc diffusion method; format: functional
Staphylococcus aureus [11] = assay: Antibacterial activity against methicillin-resistant Staphylococcus aureus assessed as inhibition of visual growth after 24 hrs; format: functional
Malassezia pachydermatis [12] = assay: Antifungal activity against Malassezia pachydermatis assessed as zone of inhibition at 1 mg/disc after 48 hrs by disc diffusion method; format: functional
Klebsiella pneumoniae [13] = assay: Antibacterial activity against Klebsiella pneumoniae MTCC 109 assessed as inhibition of visual growth after 24 hrs; format: functional; conditions: MTCC 109, 24 h
[14] = tested on: Staphylococcus epidermidis; assay: Antibacterial activity against Staphylococcus epidermidis MTCC 3615 assessed as zone of inhibition at 1 mg/disc after 24 hrs by disc diffusion method; format: functional
Klebsiella aerogenes [15] = assay: Antibacterial activity against Enterobacter aerogenes MTCC 111 assessed as zone of inhibition at 1 mg/disc after 24 hrs by disc diffusion method; format: functional
Malassezia pachydermatis [16] = assay: Antifungal activity against Malassezia pachydermatis assessed as inhibition of visual growth after 48 to 72 hrs; format: functional
Candida albicans [17] = assay: Antifungal activity against Candida albicans MTCC 227 assessed as zone of inhibition at 1 mg/disc after 48 hrs by disc diffusion method; format: functional
Candida albicans [18] = assay: Antifungal activity against Candida albicans MTCC 227 assessed as inhibition of visual growth after 48 to 72 hrs; format: functional
Salmonella typhimurium [19] = assay: Antibacterial activity against Salmonella typhimurium MTCC 1251 assessed as zone of inhibition at 1 mg/disc after 24 hrs by disc diffusion method; format: functional, Salmonella enterica subsp. enterica serovar Typhimurium
Shigella flexneri = assay: Antibacterial activity against Shigella flexneri MTCC 1457 assessed as zone of inhibition at 1 mg/disc after 24 hrs by disc diffusion method; format: functional
Salmonella typhimurium [20] = assay: Antibacterial activity against Salmonella typhimurium MTCC 1251 assessed as inhibition of visual growth after 24 hrs; format: functional, Salmonella enterica subsp. enterica serovar Typhimurium; conditions: Salmonella enterica, MTCC 1251, 24 h

Row | SMILES | MIC (Proteus vulgaris [1]) [µg/mL] | inhibition zone (IZ) (Staphylococcus aureus [2]) [mm] | MIC (Klebsiella aerogenes [3]) [µg/mL] | MIC (Micrococcus luteus [4]) [µg/mL] | inhibition zone (IZ) (Klebsiella pneumoniae [5]) [mm] | MIC (Staphylococcus aureus [6]) [µg/mL] | inhibition zone (IZ) (Staphylococcus aureus [7]) [mm] | inhibition zone (IZ) (Proteus vulgaris [8]) [mm] | MIC [9] [µg/mL] | inhibition zone (IZ) (Micrococcus luteus [10]) [mm] | MIC (Staphylococcus aureus [11]) [µg/mL] | inhibition zone (IZ) (Malassezia pachydermatis [12]) [mm] | MIC (Klebsiella pneumoniae [13]) [µg/mL] | inhibition zone (IZ) [14] [mm] | inhibition zone (IZ) (Klebsiella aerogenes [15]) [mm] | MIC (Malassezia pachydermatis [16]) [µg/mL] | inhibition zone (IZ) (Candida albicans [17]) [mm] | MIC (Candida albicans [18]) [µg/mL] | other results
1 | CN1C[C@](C#N)(C(=O)c2c[nH]c3ccccc23)[C@@H](c2cn(-c3ccccc3)nc2-c2ccccc2)[C@@]12C(=O)Nc1ccccc12 | 500 (≈ 849 µM) | 9 | 500 (≈ 849 µM) | 250 (≈ 425 µM) | 9 | 500 (≈ 849 µM) | 8 | 8 | 500 (≈ 849 µM) | 10 | 500 (≈ 849 µM) | 9 | 500 (≈ 849 µM) | 8 | 9 | 500 (≈ 849 µM) | – | – | –
2 | C=CCN1C(=O)[C@]2(c3ccccc31)[C@H](c1cn(-c3ccccc3)nc1-c1ccccc1)[C@@](C#N)(C(=O)c1c[nH]c3ccccc13)CN2C | 500 (≈ 795 µM) | 11 | 250 (≈ 398 µM) | 250 (≈ 398 µM) | 10 | 250 (≈ 398 µM) | 8 | 8 | 250 (≈ 398 µM) | 12 | 500 (≈ 795 µM) | 11 | 125 (≈ 199 µM) | 10 | 11 | 250 (≈ 398 µM) | – | – | –
3 | CN1C[C@](C#N)(C(=O)c2c[nH]c3ccccc23)[C@@H](c2cn(-c3ccccc3)nc2-c2ccccc2)[C@@]12C(=O)N(Cc1ccccc1)c1ccccc12 | 250 (≈ 368 µM) | 9 | 500 (≈ 737 µM) | 500 (≈ 737 µM) | 11 | 500 (≈ 737 µM) | 8 | 10 | 500 (≈ 737 µM) | 9 | 500 (≈ 737 µM) | 9 | 250 (≈ 368 µM) | 8 | 10 | 500 (≈ 737 µM) | 8 | 500 (≈ 737 µM) | –
4 | CCCCN1C(=O)[C@]2(c3ccccc31)[C@H](c1cn(-c3ccccc3)nc1-c1ccccc1)[C@@](C#N)(C(=O)c1c[nH]c3ccccc13)CN2C | 500 (≈ 775 µM) | – | 125 (≈ 194 µM) | 250 (≈ 388 µM) | 9 | – | – | 8 | 500 (≈ 775 µM) | 11 | – | 11 | 500 (≈ 775 µM) | 9 | 13 | 250 (≈ 388 µM) | 9 | 500 (≈ 775 µM) | –
5 | CN1C(=O)[C@]2(c3ccccc31)[C@H](c1cn(-c3ccccc3)nc1-c1ccccc1)[C@@](C#N)(C(=O)c1c[nH]c3ccccc13)CN2C | 250 (≈ 415 µM) | – | 500 (≈ 830 µM) | 500 (≈ 830 µM) | 8 | – | – | 10 | 500 (≈ 830 µM) | 10 | – | 10 | 500 (≈ 830 µM) | 8 | 8 | 500 (≈ 830 µM) | 11 | 250 (≈ 415 µM) | –
6 | C#CCN1C(=O)[C@]2(c3ccccc31)[C@H](c1cn(-c3ccccc3)nc1-c1ccccc1)[C@@](C#N)(C(=O)c1c[nH]c3ccccc13)CN2C | 500 (≈ 798 µM) | 9 | 250 (≈ 399 µM) | 500 (≈ 798 µM) | 10 | 500 (≈ 798 µM) | 8 | 8 | 250 (≈ 399 µM) | 8 | 500 (≈ 798 µM) | 8 | 250 (≈ 399 µM) | 10 | 10 | 500 (≈ 798 µM) | 10 | 125 (≈ 199 µM) | –
7 | CN1C[C@](C#N)(C(=O)c2c[nH]c3ccccc23)[C@@H](c2cn(-c3ccccc3)nc2-c2ccccc2)[C@@]12C(=O)Nc1ccc(Cl)cc12 | – | 11 | – | – | 9 | – | 12 | 11 | – | 10 | – | 9 | – | 8 | 9 | – | 11 | – | inhibition zone (IZ) (Salmonella typhimurium [19]): 8 mm
8 | N#C[C@]1(C(=O)c2c[nH]c3ccccc23)C2CCCN2[C@]2(C(=O)N(Cc3ccccc3)c3ccccc32)[C@@H]1c1cn(-c2ccccc2)nc1-c1ccccc1 (stereo partly drawn) | – | 13 | – | – | 11 | – | 8 | 10 | – | 9 | – | – | – | 15 | 8 | – | 8 | – | inhibition zone (IZ) (Salmonella typhimurium [19]): 14 mm
9 | N#C[C@]1(C(=O)c2c[nH]c3ccccc23)C2CCCN2[C@]2(C(=O)Nc3ccc(Cl)cc32)[C@@H]1c1cn(-c2ccccc2)nc1-c1ccccc1 (stereo partly drawn) | – | 9 | – | – | 9 | – | 8 | 10 | – | 9 | – | 11 | – | 8 | 8 | – | 13 | – | inhibition zone (IZ) (Shigella flexneri): 10 mm; inhibition zone (IZ) (Salmonella typhimurium [19]): 8 mm
10 | CN1C(=O)[C@]2(c3ccccc31)[C@H](c1cn(-c3ccccc3)nc1-c1ccccc1)[C@@](C#N)(C(=O)c1c[nH]c3ccccc13)C1CSCN12 (stereo partly drawn) | 500 (≈ 773 µM) | – | 500 (≈ 773 µM) | 250 (≈ 387 µM) | – | 500 (≈ 773 µM) | – | – | 125 (≈ 193 µM) | – | – | – | 500 (≈ 773 µM) | – | – | – | – | – | MIC (Salmonella typhimurium [20]): 500 µg/mL (≈ 773 µM)
11 | C#CCN1C(=O)[C@]2(c3ccccc31)[C@H](c1cn(-c3ccccc3)nc1-c1ccccc1)[C@@](C#N)(C(=O)c1c[nH]c3ccccc13)C1CSCN12 (stereo partly drawn) | – | – | – | – | – | – | 13 | 9 | – | 8 | – | – | – | – | – | – | – | – | inhibition zone (IZ) (Shigella flexneri): 14 mm
12 | N#C[C@]1(C(=O)c2c[nH]c3ccccc23)C2CSCN2[C@]2(C(=O)Nc3ccc([N+](=O)[O-])cc32)[C@@H]1c1cn(-c2ccccc2)nc1-c1ccccc1 (stereo partly drawn) | – | – | – | – | – | – | – | 8 | – | – | – | – | – | – | – | – | – | – | –
